Test results taken from the supplement of paper PMC10307832.

Assays:
Assay in all cases: relative viability (nuclei count vs DMSO), 5 days (fraction); higher = more cells survive
[1] = compound: Cn1nnc2c(C(N)=O)ncn2c1=O [Temozolomide] + O=C(CCCCCCC(=O)Nc1ccccc1)NO [Vorinostat] (partner 1 µM)
In short: (§1)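 Lung cancer cell lines in 1536-well plates got either a single drug or a fixed anchor-drug dose together with five library-drug doses (not always all listed) in √10 steps, by pin tool, on the day after seeding. Nuclei were counted after 5 days, and relative viability is the treated-to-vehicle ratio of nuclei counts. Values are medians of duplicate plates.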

[2] = compound: Cn1nnc2c(C(N)=O)ncn2c1=O [Temozolomide] + CC(C)C[C@H](NC(=O)[C@H](Cc1ccccc1)NC(=O)c1cnccn1)B(O)O [Bortezomib] (partner 0.002 µM)
In short: as §1

AZD5582 + Trametinib = compound: C[C@@H](C(=O)N[C@@H](C1CCCCC1)C(=O)N2CCC[C@H]2C(=O)N[C@@H]3[C@@H](CC4=CC=CC=C34)OCC#CC#CCO[C@@H]5CC6=CC=CC=C6[C@@H]5NC(=O)[C@@H]7CCCN7C(=O)[C@H](C8CCCCC8)NC(=O)[C@H](C)NC)NC [AZD5582] + CC(=O)Nc1cccc(-n2c(=O)n(C3CC3)c(=O)c3c(Nc4ccc(I)cc4F)n(C)c(=O)c(C)c32)c1 [Trametinib] (partner 0.02 µM)
In short: as §1

AZD5582 + Phenformin = compound: C[C@@H](C(=O)N[C@@H](C1CCCCC1)C(=O)N2CCC[C@H]2C(=O)N[C@@H]3[C@@H](CC4=CC=CC=C34)OCC#CC#CCO[C@@H]5CC6=CC=CC=C6[C@@H]5NC(=O)[C@@H]7CCCN7C(=O)[C@H](C8CCCCC8)NC(=O)[C@H](C)NC)NC [AZD5582] + N=C(N)NC(=N)NCCc1ccccc1 [Phenformin] (partner 250 µM)
In short: as §1

Row | Cell Line | relative viability ([1]; first compound 0.2 µM) | relative viability ([1]; first compound 0.6325 µM) | relative viability ([1]; first compound 2 µM) | relative viability ([1]; first compound 6.325 µM) | relative viability ([1]; first compound 20 µM) | relative viability ([2]; first compound 0.2 µM) | relative viability ([2]; first compound 0.6325 µM) | relative viability ([2]; first compound 2 µM) | relative viability ([2]; first compound 6.325 µM) | relative viability ([2]; first compound 20 µM) | relative viability (AZD5582 + Trametinib; first compound 0.001581 µM) | relative viability (AZD5582 + Trametinib; first compound 0.005 µM) | relative viability (AZD5582 + Trametinib; first compound 0.01581 µM) | relative viability (AZD5582 + Trametinib; first compound 0.05 µM) | relative viability (AZD5582 + Phenformin; first compound 0.001581 µM) | relative viability (AZD5582 + Phenformin; first compound 0.005 µM) | relative viability (AZD5582 + Phenformin; first compound 0.01581 µM) | relative viability (AZD5582 + Phenformin; first compound 0.05 µM)
1 | LXF-289 | 0.782 | 0.826 | 0.65 | 0.712 | 0.712 | 1.01 | 1.03 | 1.05 | 0.928 | 0.934 | 0.641 | 0.647 | 0.654 | 0.726 | 0.484 | 0.488 | 0.409 | 0.486
2 | NCI-H23 | 0.79 | 0.727 | 0.716 | 0.595 | 0.541 | 1.46 | 1.19 | 0.993 | 0.968 | 0.993 | 0.31 | 0.37 | 0.359 | 0.319 | 0.66 | 0.611 | 0.518 | 0.425
3 | NCI-H322M | 0.93 | 0.931 | 1.05 | 0.899 | 0.761 |  | 1.25 | 1.19 | 1.2 | 0.962 | 0.561 | 0.62 | 0.496 | 0.68 | 0.776 | 0.996 |  | 0.872
4 | NCI-H441 | 0.986 | 0.885 | 0.773 | 0.703 | 0.691 | 0.88 | 0.336 | 0.722 | 0.363 | 0.44 | 0.508 | 0.636 | 0.385 | 0.34 | 0.621 | 0.799 |  | 0.674
5 | NCI-H460 | 0.67 | 0.694 | 0.706 | 0.709 | 0.685 | 1.29 | 1.11 | 1.02 | 1.24 | 1.14 | 0.118 | 0.243 | 0.144 | 0.221 | 0.485 | 0.524 | 0.487 | 0.611
6 | NCI-H520 | 0.79 | 0.77 | 0.753 | 0.769 | 0.646 | 0.733 | 0.688 | 0.768 | 0.636 | 0.548 | 0.605 | 0.784 | 0.791 | 0.708 | 0.451 | 0.539 | 0.528 | 0.53
7 | NCI-H596 | 0.683 | 0.652 | 0.58 | 0.585 | 0.689 | 1.04 | 1.02 | 0.97 | 0.908 | 1.07 | 0.738 |  | 0.8 | 0.588 |  |  | 0.764 | 0.217
8 | NCI-H647 | 0.886 | 0.705 | 0.494 | 0.304 | 0.153 | 1.21 | 0.902 | 0.836 | 0.792 | 0.283 | 0.417 | 0.477 | 0.443 | 0.47 | 0.47 | 0.504 | 0.456 | 0.459
9 | NCI-H650 | 0.522 | 0.41 | 0.462 | 0.299 | 0.469 | 1.18 | 1.08 | 0.787 | 0.807 | 0.941 | 0.919 | 1.05 | 0.987 | 0.944 | 0.417 | 0.401 | 0.342 | 0.385
10 | NCI-H661 | 0.862 | 0.789 | 0.849 | 0.783 | 0.691 |  | 0.889 | 0.887 | 0.844 | 0.864 | 0.524 | 0.697 | 0.589 | 0.648 | 0.268 | 0.271 | 0.269 | 0.267
11 | NCI-H727 |  | 1.15 | 1.31 | 1.16 | 1.06 | 0.884 | 0.903 | 1.09 | 0.768 | 0.803 | 0.398 | 0.383 | 0.37 | 0.406 | 0.518 | 1.28 | 0.632 | 0.673
12 | NCI-H838 | 0.751 | 0.727 | 0.72 | 0.748 | 0.739 | 0.829 | 0.929 | 1.1 | 0.847 | 0.832 | 0.493 | 0.582 | 0.405 | 0.498 | 0.551 | 0.703 |  | 0.594
13 | NCI-H1355 | 0.6 | 0.638 | 0.638 | 0.624 | 0.583 | 1.34 | 1.2 | 1.2 | 1.09 | 1.14 | 0.396 | 0.444 | 0.452 | 0.409 | 0.416 | 0.426 | 0.381 | 0.387
14 | NCI-H1437 | 0.748 | 0.748 | 0.915 | 0.831 | 0.92 | 0.453 | 0.42 | 0.648 | 0.409 | 0.452 | 0.43 | 0.572 | 0.461 | 0.573 | 0.251 | 0.279 | 0.254 | 0.365
15 | NCI-H1650 | 0.529 | 0.639 | 0.578 | 0.648 | 0.483 | 0.199 | 0.175 | 0.205 | 0.167 | 0.196 | 0.447 | 0.596 | 0.514 | 0.621 | 0.461 | 0.492 | 0.342 | 0.394
